In patent US6869929B2, “Use of transcription factors for treating inflammation and other diseases” (Beth Israel Deaconess Medical Center, priority 2000, dated 2005):

Tests used:
Type in all cases: cell-based, human
ESE-1 promoter = ESE-1 promoter luciferase construct (pXP2/ESE-1) transfection; conditions: U-138 MG cells; 16 h
Protocol: Cotransfections of 3-8×10^5 cells were carried out with 600 ng reporter gene construct DNA and 200 ng expression vector DNA using LipofectAMINE PLUS (Gibco-BRL) for 16 hours as described (Oettgen, P., et al. et al., 1997, Mol Cell Biol 17:4419-33). Transfections were performed independently in duplicate and repeated 3 to 4 times with different plasmid preparations with similar results.
To investigate the molecular mechanism by which IL-1 β and LPS regulate ESE-1 expression, we examined the response of an ESE-1 promoter luciferase construct after transfection using two cytokine responsive non-epithelial cell types, U-138 MG human glial cells and RAW 264.7 cells, a murine macrophage cell line (Oettgen, P., et al. 1999, Genomics 55:358-62). Whereas the parental pXP2 vector was not stimulated by IL-1β, in U-138 MG cells, IL-1β increased ESE-1 promoter activity up to 5-fold (FIG. 12a). Similarly, LPS enhanced ESE-1 promoter activity ˜9-fold in RAW 264.7 cells (FIG. 12b).

ESE-1 [1] = experiment: ESE-1 mRNA RT-PCR in glioma cells (U-138 MG, U-373 MG); conditions: U-138 MG and U-373 MG glioma cells
Protocol: U-87 Mg and U-138 Mg (human glioma), THP-1 (human monocytic), RAW 264.7 (murine monocytic), LB-12 (human osteoblast-like large T antigen transformed bone marrow stromal cells), and human chondrocytes were grown and treated with cytokines as described (Apperley, J., et al. 1990. J Bone Mineral Res. 5:S93; Goldring, M. B., et al. 1994. J Clin Invest 94:2307-16; Goldring, S. R., et al. 1983. J Bone Joint Surg 65:575-84; Libermann, T. A., et al. 1987. Embo J. 6:1627-1632).
(§1) cDNAs were generated from 1 μg of total RNA using Ready-To-Go™ You-prime First-Strand Beads (Amersham Pharmacia Biotech Inc). RT-PCR amplifications of 0.1 μg cDNA were carried out using a MJResearch thermal cycler PTC-100 as follows: 5 min at 94° C., 20-37 cycles of 30 sec at 94° C., 30 sec at 56° C., and 30 sec at 72° C., followed by 5 min at 72° C. (Oettgen, P., et al. 2000, J Biol Chem 275:1216-25). The sequences of the human ESE-1 primers and the primers for human GAPDH were as described (Oettgen, P., et al. 1999, J Biol Chem 274:29439-52).
U-138 MG cells were infected with the IκB adenovirus (kindly provided by Fionula Brennan) (Bondeson, J., et al. 1999, Proc Natl Acad Sci U S A 96:5668-73) for 1 hour in serum-free medium using a multiple of infection of 1000. After infection the cells were washed with medium and incubated for 16 hours in DMEM containing 10% fetal calf serum in the absence or presence of IL-1β. […]

ESE-1 [2] = experiment: ESE-1 mRNA RT-PCR in RA synovial fibroblasts; conditions: 4th passage RA synovial fibroblasts
Protocol: Tissues from patients with rheumatoid arthritis (RA) were obtained as discarded materials from total joint replacement surgery or synovectomy. RA synovial tissue samples were cultured for the generation of adherent synovial fibroblasts. Dispersed synovial tissues were prepared by a previously published method (Goldring, S. R., et al. 1983. The synovial-like membrane at the bone-cement interface in loose total hip replacements and its proposed role in bone lysis. J Bone Joint Surg 65:575-84). Cells were subjected to 2-4 passages and stimulated with IL-1β (R&D Systems) at 100 pg/ml or with TNF-α (R&D Systems) at 5 ng/ml.
as §1
The synovium in RA is comprised of heterogeneous cell populations including monocyte/macrophages, lymphocytes and synovial fibroblasts. To evaluate whether ESE-1 expression in synovial fibroblasts is regulated by proinflammatory cytokines, 4th passage synovial fibroblasts isolated from RA synovium were stimulated for different times with IL-1β in the absence or presence of indomethacin. […] They also indicate that cytokine-induced prostaglandins may modulate steady state ESE-1 mRNA levels. […] We, therefore, focused our attention in further studies on IL-1β.

COL2A1 = COL2A1 mRNA time course in C-28/I2 chondrocytes; conditions: by 2 h

IL-1β: interleukin-1 beta, proinflammatory cytokine
increase in ESE-1 promoter activity (ESE-1 promoter): up to 5 fold | ESE-1 expression (ESE-1 [1]): rapidly induced transient expression | ESE-1 mRNA expression, agent alone (ESE-1 [2]): strongly induced transient ESE-1 expression | COL2A1 mRNA levels (COL2A1): strongly inhibited
